Numbers after ± are expanded uncertainties.
Assay: activity coefficient (dimensionless); of the first substance listed, at infinite dilution; xn = mol fraction of the nth substance listed
Details: 358.15 K; 101 kPa; Liquid; Chromatography; x1 = 0

Row | Structure (SMILES) | activity coefficient
1 | C1CCCCCC1 [cycloheptane] + CCCC[N+]1(C)CCCC1.N#C[B-](C#N)(C#N)C#N | 8.21 ± 0.56
2 | C1CCCCC1 [cyclohexane] + CCCC[N+]1(C)CCCC1.N#C[B-](C#N)(C#N)C#N | 6.75 ± 0.46
3 | C1=CCCCC1 [cyclohexene] + CCCC[N+]1(C)CCCC1.N#C[B-](C#N)(C#N)C#N | 3.73 ± 0.25
4 | C1CCCCCCC1 [cyclooctane] + CCCC[N+]1(C)CCCC1.N#C[B-](C#N)(C#N)C#N | 10.3 ± 0.7
5 | C1CCCC1 [cyclopentane] + CCCC[N+]1(C)CCCC1.N#C[B-](C#N)(C#N)C#N | 4.88 ± 0.33
6 | CCOCC [diethyl ether] + CCCC[N+]1(C)CCCC1.N#C[B-](C#N)(C#N)C#N | 2.37 ± 0.16
7 | CC(C)OC(C)C [diisopropyl ether] + CCCC[N+]1(C)CCCC1.N#C[B-](C#N)(C#N)C#N | 5.75 ± 0.39
8 | CCCOCCC [dipropyl ether] + CCCC[N+]1(C)CCCC1.N#C[B-](C#N)(C#N)C#N | 5.33 ± 0.36
9 | CCO [ethanol] + CCCC[N+]1(C)CCCC1.N#C[B-](C#N)(C#N)C#N | 0.95 ± 0.06
10 | CCc1ccccc1 [ethylbenzene] + CCCC[N+]1(C)CCCC1.N#C[B-](C#N)(C#N)C#N | 1.66 ± 0.11
11 | C=CCCCC [hex-1-ene] + CCCC[N+]1(C)CCCC1.N#C[B-](C#N)(C#N)C#N | 6.57 ± 0.45
12 | CO [methanol] + CCCC[N+]1(C)CCCC1.N#C[B-](C#N)(C#N)C#N | 0.753 ± 0.05
13 | CC1CCCCC1 [methylcyclohexane] + CCCC[N+]1(C)CCCC1.N#C[B-](C#N)(C#N)C#N | 9.38 ± 0.64

The remaining lines, values ahead:

Row | activity coefficient | Structure (SMILES)
14 | 44.9 ± 3.1 | CCCCCCCCCC [decane] + CCCC[N+]1(C)CCCC1.N#C[B-](C#N)(C#N)C#N
15 | 17.5 ± 1.2 | CCCCCCC [heptane] + CCCC[N+]1(C)CCCC1.N#C[B-](C#N)(C#N)C#N
16 | 12.9 ± 0.9 | CCCCCC [hexane] + CCCC[N+]1(C)CCCC1.N#C[B-](C#N)(C#N)C#N
17 | 32.6 ± 2.2 | CCCCCCCCC [nonane] + CCCC[N+]1(C)CCCC1.N#C[B-](C#N)(C#N)C#N
18 | 12.6 ± 0.9 | C=CCCCCCC [oct-1-ene] + CCCC[N+]1(C)CCCC1.N#C[B-](C#N)(C#N)C#N

Same assay, conditions: 368.15 K; 101 kPa; Liquid; Chromatography; x1 = 0

Row | Structure (SMILES) | activity coefficient
19 | Cc1ccccc1C [1,2-dimethylbenzene] + CCCC[N+]1(C)CCCC1.N#C[B-](C#N)(C#N)C#N | 1.46 ± 0.1
20 | Cc1cccc(C)c1 [1,3-dimethylbenzene] + CCCC[N+]1(C)CCCC1.N#C[B-](C#N)(C#N)C#N | 1.66 ± 0.11
21 | Cc1ccc(C)cc1 [1,4-dimethylbenzene] + CCCC[N+]1(C)CCCC1.N#C[B-](C#N)(C#N)C#N | 1.62 ± 0.11
22 | C=CCCC [1-pentene] + CCCC[N+]1(C)CCCC1.N#C[B-](C#N)(C#N)C#N | 5.02 ± 0.34
23 | CC(C)CC(C)(C)C [2,2,4-trimethylpentane] + CCCC[N+]1(C)CCCC1.N#C[B-](C#N)(C#N)C#N | 20 ± 1.4
24 | CCC(C)(C)C [2,2-dimethylbutane] + CCCC[N+]1(C)CCCC1.N#C[B-](C#N)(C#N)C#N | 11.2 ± 0.8
25 | CCC(C)(C)OC [2-methoxy-2-methylbutane] + CCCC[N+]1(C)CCCC1.N#C[B-](C#N)(C#N)C#N | 3.39 ± 0.23
26 | COC(C)(C)C [2-methoxy-2-methylpropane] + CCCC[N+]1(C)CCCC1.N#C[B-](C#N)(C#N)C#N | 2.55 ± 0.17
27 | CCC(C)CC [3-methylpentane] + CCCC[N+]1(C)CCCC1.N#C[B-](C#N)(C#N)C#N | 11.2 ± 0.8
28 | CC(C)=O [acetone] + CCCC[N+]1(C)CCCC1.N#C[B-](C#N)(C#N)C#N | 0.485 ± 0.037
29 | c1ccccc1 [benzene] + CCCC[N+]1(C)CCCC1.N#C[B-](C#N)(C#N)C#N | 0.887 ± 0.056
30 | C1CCCCCC1 [cycloheptane] + CCCC[N+]1(C)CCCC1.N#C[B-](C#N)(C#N)C#N | 7.78 ± 0.53
31 | C1CCCCC1 [cyclohexane] + CCCC[N+]1(C)CCCC1.N#C[B-](C#N)(C#N)C#N | 6.47 ± 0.44
32 | C1=CCCCC1 [cyclohexene] + CCCC[N+]1(C)CCCC1.N#C[B-](C#N)(C#N)C#N | 3.71 ± 0.25
33 | C1CCCCCCC1 [cyclooctane] + CCCC[N+]1(C)CCCC1.N#C[B-](C#N)(C#N)C#N | 9.76 ± 0.67
34 | C1CCCC1 [cyclopentane] + CCCC[N+]1(C)CCCC1.N#C[B-](C#N)(C#N)C#N | 4.72 ± 0.32
35 | CCOCC [diethyl ether] + CCCC[N+]1(C)CCCC1.N#C[B-](C#N)(C#N)C#N | 2.39 ± 0.16
36 | CC(C)OC(C)C [diisopropyl ether] + CCCC[N+]1(C)CCCC1.N#C[B-](C#N)(C#N)C#N | 5.68 ± 0.39
37 | CCCOCCC [dipropyl ether] + CCCC[N+]1(C)CCCC1.N#C[B-](C#N)(C#N)C#N | 5.26 ± 0.36
38 | CCO [ethanol] + CCCC[N+]1(C)CCCC1.N#C[B-](C#N)(C#N)C#N | 0.894 ± 0.057
39 | CCc1ccccc1 [ethylbenzene] + CCCC[N+]1(C)CCCC1.N#C[B-](C#N)(C#N)C#N | 1.69 ± 0.11
40 | C=CCCCC [hex-1-ene] + CCCC[N+]1(C)CCCC1.N#C[B-](C#N)(C#N)C#N | 6.57 ± 0.45
41 | CO [methanol] + CCCC[N+]1(C)CCCC1.N#C[B-](C#N)(C#N)C#N | 0.723 ± 0.048
42 | CC1CCCCC1 [methylcyclohexane] + CCCC[N+]1(C)CCCC1.N#C[B-](C#N)(C#N)C#N | 8.94 ± 0.61

Other lines, results leading:

Row | activity coefficient | Structure (SMILES)
43 | 22.8 ± 1.6 | C=CCCCCCCCC [1-decene] + CCCC[N+]1(C)CCCC1.N#C[B-](C#N)(C#N)C#N
44 | 8.93 ± 0.61 | C=CCCCCC [1-heptene] + CCCC[N+]1(C)CCCC1.N#C[B-](C#N)(C#N)C#N
45 | 3.56 ± 0.24 | C#CCCCCC [1-heptyne] + CCCC[N+]1(C)CCCC1.N#C[B-](C#N)(C#N)C#N
46 | 2.68 ± 0.18 | C#CCCCC [1-hexyne] + CCCC[N+]1(C)CCCC1.N#C[B-](C#N)(C#N)C#N
47 | 4.78 ± 0.33 | C#CCCCCCC [1-octyne] + CCCC[N+]1(C)CCCC1.N#C[B-](C#N)(C#N)C#N
48 | 1.23 ± 0.08 | CCCCO [butan-1-ol] + CCCC[N+]1(C)CCCC1.N#C[B-](C#N)(C#N)C#N
49 | 42.1 ± 2.9 | CCCCCCCCCC [decane] + CCCC[N+]1(C)CCCC1.N#C[B-](C#N)(C#N)C#N
50 | 16.6 ± 1.1 | CCCCCCC [heptane] + CCCC[N+]1(C)CCCC1.N#C[B-](C#N)(C#N)C#N
51 | 12.3 ± 0.8 | CCCCCC [hexane] + CCCC[N+]1(C)CCCC1.N#C[B-](C#N)(C#N)C#N
52 | 30.3 ± 2.1 | CCCCCCCCC [nonane] + CCCC[N+]1(C)CCCC1.N#C[B-](C#N)(C#N)C#N
53 | 12.5 ± 0.9 | C=CCCCCCC [oct-1-ene] + CCCC[N+]1(C)CCCC1.N#C[B-](C#N)(C#N)C#N

Source: the NIST ThermoML archive (doi:10.1016/j.jct.2011.06.007)
